In brackets after ≈: the same amount, converted by molar mass. Read-outs that look alike come from different tables or passages of the source. Blank lines part the entries; values can stand above or below the compound they belong to.
Columns and labels:
[1] = test system: LPS-driven NF-kB activation, eLUCidate Raw 264.7 NF-kB reporter cell line; assay: Anti-inflammatory activity, NF-kB luciferase reporter; assay type: cell-based, murine; settings: 10 ng/ml LPS from E. coli, 6 h
Experimental: (§1) The inhibitory activity of HG2, HG4 and comparator compounds against LPS and LTA was assessed using eLUCidate™ Raw 264.7 NF-kB reporter cell line (AMSBIO) as previously described. The eLUCidate NF-kB reporter cell line is a stably transfected Raw 264.7 cell line which expresses the Renilla luciferase reporter gene under the transcriptional control of the NF-kB response element, a key transcription factor involved in immune and inflammatory responses. This reporter cell line has been used to measure the induction of various toll-like receptors (TLR) by ligands, including LPS and LTA, therefore providing an effective way to evaluate inhibitors of their activations. Briefly, cells were grown and maintained following the manufacturer’s instructions in Dulbecco’s modified essential medium (DMEM) supplemented with 10% fetal calf serum (FCS), 1% L-glutamine, 1% antibiotics (Invitrogen) and containing 3 µg/ml of puromycin (Sigma-Aldrich, UK). To test the inhibitory activity of HG2 and HG4 on LPS or LTA-driven NF-kB activation, eLUCidate™ Raw 264.7 cells grown on 75 cm^2 flasks were detached using trypsin-EDTA solution (Thermofisher, UK) and seeded into 96-well cell culture plates (Greiner Bio-one, UK) at ~25,000 cells per well (counted using Mallasez’s chamber). The next day, wells were emptied, and cells were exposed to optimal concentrations of LPS or LTA determined from preliminary experiments, (i.e. 10 ng/ml of LPS from E. coli or 10 µg/ml of LTA from S. aureus (Invivogen, UK)) in the presence of increasing concentrations of HG2 or HG4 (from 0 to 500 µg/ml, serial 1:2 dilutions). Pyrrolidine dithiocarbamate (PDTC, 100 µM) and polymyxin B (PMB, 100 µM) (Sigma-Aldrich, UK) were used as positive controls based on their well-known activity as anti-inflammatory molecules and blockers/neutralisers of LPS and LTA, respectively. Importantly, all steps were performed using non-pyrogenic plastics and RNase/DNase molecular biology tips to limit the risk of the presence of a trace of LPS/LTA. After 6 h incubation at 37 °C and 5% CO2, wells were emptied, and the cells were treated with 70 µl of ice-cold PBS containing 1% Triton X-100. After 10 min incubation on ice under orbital shaking at 200 rpm, 50 µL of cell lysates were collected and transferred into white 96-well luminescence plates (Dominique Dutscher) already containing 100 µL of Renilla luciferase substrate (Yelen, France). Luminescence signals of the wells were immediately measured using a microplate reader (Biotek Synergy Mx, UK). The luminescence values were expressed as a percentage of control inflammation corresponding to values obtained after treatment with LPS or LTA in the absence of an inhibitor. The IC50 values of PDTC, PMB, HG2 or HG4 on LPS or LTA-mediated inflammation (i.e. the concentration of molecule causing a reduction of 50% of the luciferase’s induction caused by LPS or LTA) were calculated using GraphPad® Prism 7 software.

[2] = test system: LTA-driven NF-kB activation, eLUCidate Raw 264.7 NF-kB reporter cell line; assay: as above; assay type: cell-based, murine; settings: 10 µg/ml LTA from S. aureus, 6 h
Experimental: as §1

S. aureus RN4220 = assay: MIC, broth microdilution; assay type: cell-based, Staphylococcus aureus; settings: sensitive
Experimental: (§2) To determine the antimicrobial activity of the new antimicrobial peptides, HG2 and HG4, their minimum inhibitory concentrations (MICs) were determined by broth microdilution method[51] in cation adjusted Mueller Hinton broth (MHB) following the International Organisation for Standardisation (ISO) 20776-1 standard for MIC testing using a final bacterial inoculum of 5 × 10^5 CFU/ml[52]. […] The peptides dissolved in sterile distilled water were added to bacteria culture and incubated overnight at appropriate conditions. The MICs of the peptides and comparator antibiotics were recorded after 18–24 h. The minimum bactericidal concentrations (MBCs) were also determined and were taken as the lowest concentration of the antimicrobial that prevented the growth of bacterial cells after the subculture of cells (from MIC treatment) onto antibiotic-free media.

P. aeruginosa PA01 = assay: microbe, parasite or virus in culture; assay type: cell-based, Pseudomonas aeruginosa
Experimental: as §2

Sal. typhimurium SL1344 = assay: microbe, parasite or virus in culture; assay type: cell-based, Salmonella enterica serovar Typhimurium
Experimental: as §2

E. coli K12 = assay: microbe, parasite or virus in culture; assay type: cell-based, Escherichia coli
Experimental: as §2

S. aureus ATCC 33591 = assay: microbe, parasite or virus in culture; assay type: cell-based, Staphylococcus aureus; settings: Staphylococcus aureus, ATCC 33591 / MRSA
Experimental: as §2

S. aureus EMRSA-15 = assay: microbe, parasite or virus in culture; assay type: cell-based, Staphylococcus aureus
Experimental: as §2

[3] = test system: S. aureus USA300 BAA-1717; assay: microbe, parasite or virus in culture; assay type: cell-based, Staphylococcus aureus; settings: Staphylococcus aureus, BAA-1717 / MRSA / USA300
Experimental: as §2

Ent. faecalis JH2-2 = assay: microbe, parasite or virus in culture; assay type: cell-based, Enterococcus faecalis
Experimental: as §2

[4] = test system: L. monocytogenes NCTC 11994; assay: microbe, parasite or virus in culture; assay type: cell-based, Listeria monocytogenes
Experimental: as §2

MRSA USA300 cells = assay: Time-kill kinetics; assay type: cell-based, Staphylococcus aureus; settings: 3x MIC, comparator antibiotics, time not stated
Experimental: The bactericidal activity of HG2, HG4 and comparator antimicrobial compounds was assessed using exponential-phase cultures[14] of MRSA USA300 grown in MHB (1 × 10^6-8 CFU/ml). […] Samples were taken at different time points, serially diluted and inoculated onto MH agar plates using the spread plate technique. After overnight incubation, the colony-forming units per millilitre of cell culture (CFU/ml) was calculated. Experiments were performed in quadruplicates.

K. pneumoniae 518842 = assay: microbe, parasite or virus in culture; assay type: cell-based, Klebsiella pneumoniae; settings: K. pneumoniae 518842; CTX-M
Experimental: as §2

K. pneumoniae 526903 = assay: microbe, parasite or virus in culture; assay type: cell-based, Klebsiella pneumoniae; settings: K. pneumoniae 526903; sensitive
Experimental: as §2

[5] = test system: K. pneumoniae ATCC 700603; assay: microbe, parasite or virus in culture; assay type: cell-based, Klebsiella pneumoniae; settings: K. pneumoniae ATCC 700603; SHV-18
Experimental: as §2

K. pneumoniae NCTC 13442 = assay: microbe, parasite or virus in culture; assay type: cell-based, Klebsiella pneumoniae; settings: K. pneumoniae NCTC 13442; OXA-48
Experimental: as §2

[6] = test system: A. baumannii (IMI, MER resistant; strain ID not given); assay: microbe, parasite or virus in culture; assay type: cell-based, Acinetobacter baumannii; settings: A. baumannii, no strain ID, MER
Experimental: as §2

A. baumannii 515722 = assay: microbe, parasite or virus in culture; assay type: cell-based, Acinetobacter baumannii; settings: A. baumannii 515722; sensitive
Experimental: as §2

A. baumannii 515785 = assay: microbe, parasite or virus in culture; assay type: cell-based, Acinetobacter baumannii; settings: A. baumannii 515785; OXA-23, OXA-50
Experimental: as §2

A. baumannii 515908 = assay: microbe, parasite or virus in culture; assay type: cell-based, Acinetobacter baumannii; settings: A. baumannii 515908; sensitive
Experimental: as §2

[7] = test system: P. aeruginosa (CF) AMT0060; assay: microbe, parasite or virus in culture; assay type: cell-based, Pseudomonas aeruginosa; settings: P. aeruginosa (CF) AMT0060
Experimental: as §2

P. aeruginosa (CF) C3719 = assay: microbe, parasite or virus in culture; assay type: cell-based, Pseudomonas aeruginosa; settings: P. aeruginosa (CF) C3719
Experimental: as §2

[8] = test system: P. aeruginosa (CF) LES400; assay: microbe, parasite or virus in culture; assay type: cell-based, Pseudomonas aeruginosa; settings: P. aeruginosa (CF) LES400
Experimental: as §2

P. aeruginosa = assay: microbe, parasite or virus in culture; assay type: cell-based, Pseudomonas aeruginosa; settings: P. aeruginosa; Supplementary Table 5
Experimental: as §2

Sal. typhimurium = assay: microbe, parasite or virus in culture; assay type: cell-based, Salmonella enterica serovar Typhimurium; settings: Sal. typhimurium; Supplementary Table 5
Experimental: as §2

E. coli = assay: microbe, parasite or virus in culture; assay type: cell-based, Escherichia coli; settings: E. coli; Supplementary Table 5
Experimental: as §2

EMRA-15 = assay: microbe, parasite or virus in culture; assay type: cell-based, Staphylococcus aureus; settings: EMRA-15; Supplementary Table 5
Experimental: as §2

S. aureus = assay: microbe, parasite or virus in culture; assay type: cell-based, Staphylococcus aureus; settings: S. aureus; Supplementary Table 5
Experimental: as §2

Ent. faecalis = assay: microbe, parasite or virus in culture; assay type: cell-based, Enterococcus faecalis; settings: Ent. faecalis; Supplementary Table 5
Experimental: as §2

List. monocytogenes = assay: microbe, parasite or virus in culture; assay type: cell-based, Listeria monocytogenes; settings: List. monocytogenes; Supplementary Table 5
Experimental: as §2

- IC50 ([1]; Mus musculus, RAW264.7, read-out: IC50, LPS-mediated inflammation): 10.7 ± 1.2 µg/mL
- IC50 ([2]; Mus musculus, RAW264.7, read-out: IC50, LTA-mediated inflammation): 10.8 ± 1.29 µg/mL
Compound: S=C(S)N1CCCC1 [PDTC, Pyrrolidine dithiocarbamate, reference compound]

Compound: CN[C@H](CC(C)C)C(=O)N[C@H]1C(=O)N[C@@H](CC(N)=O)C(=O)N[C@H]2C(=O)N[C@H]3C(=O)N[C@H](C(=O)N[C@H](C(=O)O)c4cc(O)cc(O)c4-c4cc3ccc4O)[C@H](O)c3ccc(c(Cl)c3)Oc3cc2cc(c3O[C@@H]2O[C@H](CO)[C@@H](O)[C@H](O)[C@H]2O[C@H]2C[C@](C)(N)[C@H](O)[C@H](C)O2)Oc2ccc(cc2Cl)[C@H]1O [Vancomycin]
- MIC (S. aureus RN4220; Staphylococcus aureus, read-out: MIC): 1 µg/mL (≈ 0.69 µM)
- MIC (P. aeruginosa PA01; Pseudomonas aeruginosa, PA01): 64 µg/mL (≈ 44.2 µM)
- MIC (Sal. typhimurium SL1344; Salmonella enterica, TYPHIMURIUM): 256 µg/mL (≈ 177 µM)
- MIC (E. coli K12; Escherichia coli, K12): 128 µg/mL (≈ 88.3 µM)
- MIC (S. aureus ATCC 33591): 2 µg/mL (≈ 1.38 µM)
- MIC (S. aureus EMRSA-15; Staphylococcus aureus, MRSA): 2 µg/mL (≈ 1.38 µM)
- MIC [3]: 2 µg/mL (≈ 1.38 µM)
- MIC (Ent. faecalis JH2-2; Enterococcus faecalis, JH22): 64 µg/mL (≈ 44.2 µM)
- MIC ([4]; Listeria monocytogenes, NCTC11994): 64 µg/mL (≈ 44.2 µM)
- reduction in viable cells (time-kill) (MRSA USA300 cells): ≥ 2 log10 CFU/ml

Compound: polymyxin B [reference compound]
- MIC (S. aureus RN4220): 256 µg/mL
- MIC (K. pneumoniae 518842): 2 µg/mL
- MIC (K. pneumoniae 526903): 4 µg/mL
- MIC [5]: 2 µg/mL
- MIC (K. pneumoniae NCTC 13442): 8 µg/mL
- MIC [6]: 0.25 µg/mL
- MIC (A. baumannii 515722): 0.25 µg/mL
- MIC (A. baumannii 515785): 0.5 µg/mL
- MIC (A. baumannii 515908): 0.5 µg/mL
- MIC [7]: 0.5 µg/mL
- MIC (P. aeruginosa (CF) C3719): 1 µg/mL
- MIC [8]: 1 µg/mL
- MIC (P. aeruginosa PA01; P. aeruginosa PA01): 2 µg/mL
- Minimum inhibitory Concentrations MICs (P. aeruginosa): 1.95 µg/mL
- MIC (Sal. typhimurium SL1344; Sal. typhimurium SL1344): 2 µg/mL
- Minimum inhibitory Concentrations MICs (Sal. typhimurium): 1.95 µg/mL
- MIC (E. coli K12; E. coli K12): 2 µg/mL
- Minimum inhibitory Concentrations MICs (E. coli): 1.95 µg/mL
- Minimum inhibitory Concentrations MICs (EMRA-15): 250 µg/mL
- MIC (S. aureus EMRSA-15; S. aureus EMRSA-15, resistances MRSA, Cip): 256 µg/mL
- Minimum inhibitory Concentrations MICs (S. aureus): 250 µg/mL
- MIC (Ent. faecalis JH2-2; Ent. faecalis JH2-2): 32 µg/mL
- Minimum inhibitory Concentrations MICs (Ent. faecalis): 31.25 µg/mL
- MIC ([4]; L. monocytogenes NCTC 11994): 64 µg/mL
- Minimum inhibitory Concentrations MICs (List. monocytogenes): 62.5 µg/mL
- IC50, LPS-mediated inflammation [1]: 62.26 ± 4.01 µg/mL
- IC50, LTA-mediated inflammation [2]: 61.34 ± 3.47 µg/mL
